Results as given in ChEMBL document CHEMBL1201862, “PubChem BioAssay data set” (2004).
Structures can show the parent of a compound that is named as a salt. The source made the active and inactive calls.

How the values were obtained:
[1] = luciferase reporter signal suppression in cells – H4 neuroglioma cells, luminescence, dose response (AID 1990); type: functional, cell-based
[2] = molecular target: Sphingosine 1-phosphate receptor 2 (Homo sapiens, UniProt O95136); assay: Dose Response Cell Based Assay for Antagonists of the S1P2 Receptor. [Related pubchem assays: 856, 736 ]; type: functional
[3] = Luminescence Cell-Based Dose Response HTS to Identify Inhibitors of 5'UTR Stem-Loop Driven Prion Protein mRNA Translation in H4 Neuroglioblastoma Cells. [Related pubchem assays: 1827 (Project Summary), 1813 (Primary HTS)]; type: functional
[4] = alpha-synuclein stem-loop luciferase translation blockers – H4 neuroglioma cells, luminescence, confirmation (AID 1988); type: functional, cell-based
[5] = molecular target: Mitogen-activated protein kinase 10 (Homo sapiens, UniProt P53779); assay: Dose response biochemical screening assay for inhibitors of c-Jun N-Terminal Kinase 3 (JNK3). [Related pubchem assays: 746 ]
[6] = molecular target: T1, Mannose-6-phosphate isomerase (Homo sapiens, UniProt P34949); assay: MPI inhibition at elevated mannose 6-phosphate – biochemical, fluorescence intensity, high mannose 6-phosphate, primary screen (AID 1220)
T1 sequence (P34949 whole entry): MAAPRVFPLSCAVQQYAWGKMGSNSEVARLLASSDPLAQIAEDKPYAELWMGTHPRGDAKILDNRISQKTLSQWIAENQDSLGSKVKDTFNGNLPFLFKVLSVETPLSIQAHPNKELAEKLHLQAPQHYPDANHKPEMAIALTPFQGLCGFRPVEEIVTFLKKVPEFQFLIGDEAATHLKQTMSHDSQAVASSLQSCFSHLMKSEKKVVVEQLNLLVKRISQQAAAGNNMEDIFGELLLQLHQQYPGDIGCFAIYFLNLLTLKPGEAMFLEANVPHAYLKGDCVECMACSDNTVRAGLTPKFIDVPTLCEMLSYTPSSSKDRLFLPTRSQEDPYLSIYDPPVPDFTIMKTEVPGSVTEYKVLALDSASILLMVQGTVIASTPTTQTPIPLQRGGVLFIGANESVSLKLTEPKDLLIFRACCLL

[7] = Luminescence Cell-Based Dose Retest to Confirm Inhibitors of Cancer Stem Cells. [Related pubchem assays (depositor defined):AID2717, AID2721]; type: functional; conditions: Homo sapiens
fMet-Leu-Phe receptor = molecular target: T2, fMet-Leu-Phe receptor (Homo sapiens, UniProt P21462); assay: formyl peptide receptor binders – dose response (AID 519); type: functional
T2 sequence (P21462 whole entry): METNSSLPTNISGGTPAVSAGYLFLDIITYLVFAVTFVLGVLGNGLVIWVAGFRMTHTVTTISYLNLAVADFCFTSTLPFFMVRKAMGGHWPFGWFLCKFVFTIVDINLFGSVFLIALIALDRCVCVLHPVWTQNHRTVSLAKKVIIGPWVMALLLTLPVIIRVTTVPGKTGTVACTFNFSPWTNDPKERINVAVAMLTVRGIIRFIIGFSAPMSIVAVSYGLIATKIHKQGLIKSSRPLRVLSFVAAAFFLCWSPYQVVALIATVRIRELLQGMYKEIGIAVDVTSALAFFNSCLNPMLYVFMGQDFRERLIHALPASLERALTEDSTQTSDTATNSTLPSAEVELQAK

[8] = NIH-3T3 fibroblast cytotoxicity, dose response, cytotoxicity control, cell-based, fluorescence, Alamar Blue, secondary assay (AID 2327); type: functional;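 note: NIH-3T3 mouse fibroblasts cultured with fluconazole at 8 µg/mL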
[9] = fluconazole-exposed Candida albicans growth modulators – fluorescence, retest, confirmation (AID 2467); type: functional, cell-based
[10] = microbe, parasite or virus in culture; type: functional; conditions: Mycobacterium tuberculosis
[11] = THP-1 cell cytotoxicity, dose response, cytotoxicity control for non-replicating M. tuberculosis project (AID 489025); type: functional
[12] = HepG2 cell cytotoxicity, dose response, cytotoxicity control for non-replicating M. tuberculosis project (AID 489018); type: functional; conditions: Mycobacterium tuberculosis
[13] = Vero E6 cell cytotoxicity, dose response, cytotoxicity control for non-replicating M. tuberculosis project, secondary assay (AID 492998); type: functional, VeroE6; conditions: Vero C1008
cells = type: functional
INS1 = assay: INS-1E survival protection against cytokine death – cell-based, luminescence, retest, dose response (AID 449756); type: functional; conditions: Rattus norvegicus;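 note: cell death triggered by IL-1 beta plus TNF-alpha plus IFN-gamma mixture; protective hits raise ATP signal compared with cytokine alone wells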
Paired box protein Pax-8 = Paired box protein Pax-8 (Homo sapiens, UniProt Q06710); assay: PAX8 transcriptional activity inhibition in RMG-I – RMG-I cells, luciferase, cherry-pick, dose response (AID 687027); type: functional, cell-based;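 note: luciferase reporter driven by Pax8 target thyroperoxidase promoter measured by SteadyGlo luminescence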
[14] = OVCAR-3 cell viability loss – plate reader, dry powder samples, PAX8 inhibitor project, dose response (AID 743044); type: functional, cell-based
[15] = OVCAR8 cell viability loss – plate reader, dry powder samples, PAX8 project, dose response (AID 743197); type: functional, cell-based; conditions: OVCAR-8
[16] = growth inhibition of yeast DHODH-expressing 3D7 parasites – SYBR Green, dry powder samples, dose response (AID 1159570); type: functional, cell-based;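 note: parasite growth measured after 72 hours of compound exposure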
[17] = toxicity to human HepG2 hepatoma cells – cell-based, plate reader, dry powder samples, cytotoxicity control, dose response (AID 1159569); type: functional;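 note: inhibitor potency with signal falling toward the positive control level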
[18] = P. falciparum Dd2 growth inhibitors, dose response, SYBR Green, cherry-picked samples (AID 1159567); type: functional, cell-based
[19] = Dd2 malaria parasite growth inhibition potency – SYBR Green, dry powder samples, dose response (AID 1159566); type: functional, cell-based;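 note: potency for growth inhibition with lower SYBR green DNA signal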
[20] = toxicity to human hepatoma HepG2 cells – cell-based, cherry-picked samples, cytotoxicity control, dose response (AID 1159577); type: functional
[21] = growth inhibition of PfATP4-mutant resistant parasites – NITD609-resistant line, SYBR Green, dry powder, dose response (AID 1159571); type: functional, cell-based;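 note: parasites synchronized at ring stage by sorbitol before testing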
[22] = glucagon-like peptide-1 release potency in STC-1, concentration-response, half-maximal inhibitory concentration in the STC-1 line (AID 1117345); type: functional, cell-based
[23] = Potency on glucagon-like peptide 1 release, dose-response in NCI-H716 cell line, half maximal inhibitory concentration (AID 1117344); type: functional, cell-based
[24] = A549 cell cytotoxicity, dose response, cytotoxicity control, plate reader, cherry-pick, antagonist series (AID 743412); type: functional, cell-based
[25] = toxicity toward HepG2 liver cells – cell-based, plate reader, cherry-pick, antagonist series, cytotoxicity control, dose response (AID 743416); type: functional
[26] = blockers of bursicon-stimulated LGR2 cAMP reporter – cell-based, HEK293, CRE-luciferase reporter, cherry pick, set 2, dose response (AID 743343); type: functional;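 note: transfected cells were stimulated with diluted bursicon conditioned medium after compound addition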
[27] = Dd2 parasite growth inhibition in erythrocytes – SYBR Green, dry powder samples, set 9, dose response (AID 1159568); type: functional, cell-based
[28] = blockade of melanocortin 4 receptor signaling – cell-based, plate reader, cherry pick, counter-screen for LGR2 antagonist project, dose response (AID 743444); type: functional;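 note: transfected HEK 293 cells stimulated with alpha-MSH peptide; potency of inhibitors of the alpha-MSH evoked signal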
[29] = CellTiter-Glo luminescence survival assay, SW480 colon tumor line, concentration-response curve, half-maximal inhibitory concentration (AID 1117338); type: functional
[30] = RKO cell viability reduction, dose response, CellTiter-Glo luminescence (AID 1117322); type: functional
[31] = cytotoxicity toward HCT116 cells – cell-based, CellTiter-Glo luminescence, IC50, dose response (AID 1117332); type: functional; conditions: HCT-116
[32] = cytotoxicity toward Colo320 cells – cell-based, CellTiter-Glo luminescence, IC50, dose response (AID 1117334); type: functional; conditions: COLO 320
[33] = cytotoxicity toward HT-29 cells – cell-based, CellTiter-Glo luminescence, IC50, dose response (AID 1117330); type: functional
[34] = Reduced DLD-1 viability, concentration-response, CellTiter-Glo luminescence (AID 1117352); type: functional
[35] = HCT116 cell viability decrease, GSK3B pretreatment – CellTiter-Glo, IC50, dose response (AID 1117339); type: functional; conditions: HCT-116
[36] = SNU-C1 cell viability reduction, dose response, CellTiter-Glo luminescence (AID 1117323); type: functional, cell-based

Chain of Mitogen-activated protein kinase 10 (P53779 whole entry): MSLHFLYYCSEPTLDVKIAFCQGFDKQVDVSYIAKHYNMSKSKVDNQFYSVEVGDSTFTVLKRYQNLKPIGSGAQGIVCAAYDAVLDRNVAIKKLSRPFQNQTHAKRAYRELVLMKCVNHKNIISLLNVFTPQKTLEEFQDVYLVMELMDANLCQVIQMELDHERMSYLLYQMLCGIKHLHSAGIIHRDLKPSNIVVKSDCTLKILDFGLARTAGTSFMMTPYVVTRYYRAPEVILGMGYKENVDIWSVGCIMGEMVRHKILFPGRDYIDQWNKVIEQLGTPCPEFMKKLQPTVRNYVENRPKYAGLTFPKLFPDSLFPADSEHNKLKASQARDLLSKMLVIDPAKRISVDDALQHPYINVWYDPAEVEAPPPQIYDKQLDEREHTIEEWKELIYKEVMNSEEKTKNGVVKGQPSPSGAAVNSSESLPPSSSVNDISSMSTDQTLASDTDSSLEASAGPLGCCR
Chain of Paired box protein Pax-8 (Q06710 whole entry): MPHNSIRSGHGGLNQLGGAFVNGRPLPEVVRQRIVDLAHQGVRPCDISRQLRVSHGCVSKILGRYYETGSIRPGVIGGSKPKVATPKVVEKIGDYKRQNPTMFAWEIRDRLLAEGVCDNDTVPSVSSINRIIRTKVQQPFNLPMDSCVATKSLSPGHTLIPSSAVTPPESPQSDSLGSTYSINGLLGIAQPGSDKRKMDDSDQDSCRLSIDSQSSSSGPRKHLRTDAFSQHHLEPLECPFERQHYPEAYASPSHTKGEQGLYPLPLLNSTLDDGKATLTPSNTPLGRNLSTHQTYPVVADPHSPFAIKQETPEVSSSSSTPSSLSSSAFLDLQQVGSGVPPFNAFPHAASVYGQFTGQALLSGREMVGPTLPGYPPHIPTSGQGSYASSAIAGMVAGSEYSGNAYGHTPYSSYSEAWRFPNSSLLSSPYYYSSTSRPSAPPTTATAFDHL
Chain of Sphingosine 1-phosphate receptor 2 (O95136 whole entry): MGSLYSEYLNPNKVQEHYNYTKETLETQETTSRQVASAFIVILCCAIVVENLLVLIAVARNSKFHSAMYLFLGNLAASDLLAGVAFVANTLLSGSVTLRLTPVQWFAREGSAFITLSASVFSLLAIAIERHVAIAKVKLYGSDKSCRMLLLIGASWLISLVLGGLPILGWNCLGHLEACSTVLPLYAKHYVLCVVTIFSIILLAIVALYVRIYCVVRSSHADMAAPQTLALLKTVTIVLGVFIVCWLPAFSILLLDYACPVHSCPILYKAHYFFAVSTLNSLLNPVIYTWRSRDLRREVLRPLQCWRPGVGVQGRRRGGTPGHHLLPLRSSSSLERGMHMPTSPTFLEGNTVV

O=C(c1cc(NC(=O)C23CC4CC(CC(C4)C2)C3)cc(NC(=O)C23CC4CC(CC(C4)C2)C3)c1)N1CCCCC1
EC50 [1]: 17.1 µM (active) | IC50 [2]: 0.977 µM (active) | EC50 [3]: 15.7 µM (active) | EC50 [4]: 12.2 µM (inconclusive)

COc1ccc(CNC(=O)c2cnn3c(C(F)F)cc(C)nc23)cc1OC
IC50 [5]: > 31 µM (not active)

O=C(NCCN1CCOCC1)NC1(C(F)(F)F)Oc2ccc(Cl)cc2O1 (stereo unspecified)
IC50 [6]: > 50 µM (not active) | AC50 [7]: 7.37 µM (active) | Ki (fMet-Leu-Phe receptor): > 66.7 µM (inactive)

N#CCCC12CCCCC1=Nc1ccccc12 (stereo unspecified)
IC50 [5]: > 93.1 µM (not active)

Cc1ccccc1Nc1nn2c(=O)c3ccccc3nc2s1
IC50 [5]: 39.3 µM (not active)

CCOC(=O)N1CCN(Cc2cc(Cl)c3cccnc3c2O)CC1
EC50 [8]: > 150 µM (inactive) | EC50 [9]: 1.28 µM (active) | CC50 [10]: 4.95 µM (active) | IC50 [6]: 11.8 µM (active) | CC50 [11]: 4.35 µM (active) | CC50 [12]: 11 µM (active) | CC50 [13]: 2.64 µM (active) | IC50 (cells): 10.9 µM (active) | AC50 (INS1): 3.13 µM (active)

C[C@@H]1CN([C@@H](C)CO)C(=O)Cc2cc(NC(=O)Cc3cn(C)c4ccccc34)ccc2O[C@H]1CN(C)Cc1ccc(Oc2ccccc2)cc1
AC50 (Paired box protein Pax-8): 7.45 µM (active) | AC50 [14]: 22.6 µM (active) | AC50 [15]: 43.1 µM (active) | AC50 [16]: 1.6 µM (active) | AC50 [17]: 22.2 µM (active) | AC50 [18]: 1.34 µM (active) | AC50 [19]: 1.05 µM (active) | AC50 [20]: > 39 µM (inactive) | AC50 [21]: 1.65 µM (active)

C#CC1(O)CC[C@H]2[C@@H]3CCC4=CCCC[C@@H]4[C@H]3CC[C@@]21C (stereo partly specified)
IC50 [22]: > 40 µM (inactive) | IC50 [23]: 27.5 µM (inactive)

O=C(C[C@@H]1C[C@H]2c3cc(NC(=O)c4ccc5c(c4)OCO5)ccc3O[C@H]2[C@@H](CO)O1)NCc1ccc(Oc2ccccc2)cc1
AC50 [24]: 35.3 µM (active) | AC50 [25]: 20.5 µM (active) | AC50 [26]: 32.7 µM (active) | AC50 [27]: > 39 µM (inactive)

C[C@@H]1CN([C@@H](C)CO)C(=O)c2cccc(NC(=O)c3ccc(-c4nccs4)cc3)c2O[C@@H]1CN(C)C(=O)Nc1ccc(C(F)(F)F)cc1
AC50 [24]: 25.5 µM (active) | AC50 [25]: 33.2 µM (active) | AC50 [26]: 43.7 µM (active) | AC50 [28]: 54.1 µM (active) | AC50 [27]: 2.16 µM (active)

C[C@@H]1CN([C@@H](C)CO)C(=O)c2ccccc2-c2ccccc2CO[C@H]1CN(C)C(=O)Nc1cccc(Cl)c1Cl
AC50 [16]: 0.0978 µM (active) | AC50 [17]: > 100 µM (inactive) | AC50 [18]: 0.418 µM (active) | AC50 [19]: 0.107 µM (active) | AC50 [21]: 0.437 µM (active)

Cc1ccc(S(=O)(=O)N(C)C[C@H]2Oc3cc(C#CC4CCCC4)ccc3S(=O)(=O)N([C@@H](C)CO)C[C@H]2C)cc1
AC50 [27]: 3.42 µM (active)

C[C@@H]1CN([C@H](C)CO)S(=O)(=O)c2ccc(C#Cc3ccncc3)cc2O[C@H]1CN(C)S(=O)(=O)c1ccc(F)cc1
AC50 [16]: 0.682 µM (active) | AC50 [17]: 3.66 µM (active) | AC50 [18]: 2.17 µM (active) | AC50 [19]: 1.14 µM (active) | AC50 [20]: > 39 µM (inactive) | AC50 [21]: 1.17 µM (active)

Clc1ccc(C(Cn2ccnc2)OCc2ccc(Sc3ccccc3)cc2)c(Cl)c1 (stereo unspecified) [FENTICONAZOLE]
IC50 [29]: 7.44 µM (inactive) | IC50 [30]: 6.14 µM (inactive) | IC50 [31]: 7.71 µM (inactive) | IC50 [32]: 7.06 µM (inactive) | IC50 [33]: > 20 µM (inactive) | IC50 [34]: 7.76 µM (inactive) | IC50 [35]: 6.77 µM (inactive)

O=C(NC1CCN(CCc2c[nH]c3ccccc23)CC1)c1ccccc1 [INDORAMIN HYDROCHLORIDE]
IC50 [29]: > 20 µM (inactive) | IC50 [30]: > 20 µM (inactive) | IC50 [36]: > 20 µM (inactive) | IC50 [32]: > 20 µM (inactive) | IC50 [33]: > 20 µM (inactive) | IC50 [34]: > 20 µM (inactive) | IC50 [35]: > 20 µM (inactive)

OC1(c2ccc(Cl)c(C(F)(F)F)c2)CCN(CCCC(c2ccc(F)cc2)c2ccc(F)cc2)CC1 [PENFLURIDOL]
IC50 [30]: 0.971 µM (active) | IC50 [31]: 1.85 µM (active) | IC50 [36]: 0.168 µM (active) | IC50 [22]: > 40 µM (inactive) | IC50 [32]: 0.962 µM (active) | IC50 [33]: 0.946 µM (active) | IC50 [34]: 1.14 µM (active) | IC50 [23]: 8.45 µM (inactive)

CN1CCN(c2cc3c(nn2)Oc2ccccc2N3C)CC1 [PIPOFEZINE]
IC50 [29]: > 20 µM (inactive) | IC50 [30]: > 20 µM (inactive) | IC50 [31]: > 20 µM (inactive) | IC50 [36]: > 20 µM (inactive) | IC50 [32]: > 20 µM (inactive) | IC50 [33]: > 20 µM (inactive) | IC50 [34]: > 20 µM (inactive) | IC50 [35]: > 20 µM (inactive)
